The source of these data is patent publication US20230167073A1 (Teijin Pharma Limited, priority 2020, published 2023).

pIC50: −log10 of the molar value.

The first experiment addresses T1, Human TRPC6 (Homo sapiens, UniProt Q9Y210).
T1 construct: expressed in transfected cells
T1 sequence (Q9Y210 1-931): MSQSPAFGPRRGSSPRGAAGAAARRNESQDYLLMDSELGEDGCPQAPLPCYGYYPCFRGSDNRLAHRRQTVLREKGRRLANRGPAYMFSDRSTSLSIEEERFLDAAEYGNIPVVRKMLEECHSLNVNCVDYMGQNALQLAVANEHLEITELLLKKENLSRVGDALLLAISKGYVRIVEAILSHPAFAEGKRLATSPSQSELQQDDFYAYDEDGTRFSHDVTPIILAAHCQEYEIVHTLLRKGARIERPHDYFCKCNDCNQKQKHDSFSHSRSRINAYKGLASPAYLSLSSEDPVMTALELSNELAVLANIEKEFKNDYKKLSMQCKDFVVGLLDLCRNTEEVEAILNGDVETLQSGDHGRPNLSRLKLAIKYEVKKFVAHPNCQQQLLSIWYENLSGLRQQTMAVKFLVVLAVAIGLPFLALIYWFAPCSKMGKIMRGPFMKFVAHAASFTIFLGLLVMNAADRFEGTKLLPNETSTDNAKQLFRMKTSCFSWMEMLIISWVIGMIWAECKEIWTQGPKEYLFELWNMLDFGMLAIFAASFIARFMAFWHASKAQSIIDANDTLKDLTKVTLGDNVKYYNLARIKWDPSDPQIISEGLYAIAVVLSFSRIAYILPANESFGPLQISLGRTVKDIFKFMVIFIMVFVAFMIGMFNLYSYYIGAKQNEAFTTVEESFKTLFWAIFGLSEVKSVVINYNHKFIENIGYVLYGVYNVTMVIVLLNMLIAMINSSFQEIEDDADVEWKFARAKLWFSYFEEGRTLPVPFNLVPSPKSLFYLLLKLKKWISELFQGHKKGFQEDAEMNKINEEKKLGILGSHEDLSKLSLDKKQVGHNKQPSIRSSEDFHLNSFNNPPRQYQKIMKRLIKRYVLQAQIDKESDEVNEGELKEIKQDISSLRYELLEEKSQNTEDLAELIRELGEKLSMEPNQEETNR
Nature of the experiment: Evaluation of TRPC6 channel inhibitory activity (1), FLIPR Calcium 5 Assay Kit, OAG stimulation (Compound Nos. 1-1293). It is filed as cell-based.
Details: not given
The method in brief: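 The FLIPR signal is maximum fluorescence after 30 μM OAG minus minimum before compound, measured in a human TRPC6 stable line loaded with Calcium 5 dye. Compounds were preincubated 20 min. pIC50 came from four-parameter logistic fitting of inhibition rates and is given as symbol ranges.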
Regarding `N#Cc1ccc(-c2ncc(CCN)cn2)c(Oc2nnc(N3C4CCC3CC4)s2)c1` [compound 767, 4-[5-(2-aminoethyl)pyrimidin-2-yl]-3-[[5-(7-azabicyclo[2.2.1]heptan-7-yl)-1,3,4-thiadiazol-2-yl]oxy]benzonitrile], the pIC50 was greater than 8.00.

The same experiment, now with this note: Human TRPC6 stably-expressing cells, OAG 30 μM, FLIPR Calcium 5 Assay Kit; read-out: Inhibitory activity (pIC50 class) (converted).
For the molecule `Cn1nc(C2CC2)cc1Oc1cc(C#N)ccc1-c1ncc(CN)s1` [compound 520, 4-[5-(aminomethyl)-1,3-thiazol-2-yl]-3-(5-cyclopropyl-2-methylpyrazol-3-yl)oxybenzonitrile], the IC50 was 10 to 1000 nM.
Same read-out and setting: for `CC(N)c1ccc(-c2ccc(C#N)cc2Oc2cc(C3CC3)nn2C)nc1` (stereo not drawn) [compound 401, 4-[5-(1-aminoethyl)pyridin-2-yl]-3-(5-cyclopropyl-2-methylpyrazol-3-yl)oxybenzonitrile] the value was less than 10 nM; for `N#Cc1ccc(-c2ncc(CN)cn2)c(Oc2cnnc(N3CCCC3)c2)c1` [compound 714, 4-[5-(aminomethyl)pyrimidin-2-yl]-3-(6-pyrrolidin-1-ylpyridazin-4-yl)oxybenzonitrile], less than 10 nM.
`Cc1nc(Oc2cc(C#N)ccc2-c2ccc(C(O)CN)c(CC#N)c2)cc(N2CCOCC2)n1` (stereo not drawn) [Compound 158, 4-[4-(2-amino-1-hydroxyethyl)-3-(cyanomethyl)phenyl]-3-(2-methyl-6-morpholin-4-ylpyrimidin-4-yl)oxybenzonitrile]: the IC50 was 10 to 1000 nM.
In the case of `Cc1nc(Sc2cc(C#N)ccc2-c2ccc(CCN)cn2)cc(N2CCOCC2)n1` [compound 1248, 4-[5-(2-aminoethyl)pyridin-2-yl]-3-(2-methyl-6-morpholin-4-ylpyrimidin-4-yl)sulfanylbenzonitrile], the IC50 is 10 to 1000 nM.
As to `Cc1nc(Oc2cc(C#N)ccc2-c2ncc(CCN)cn2)cc(-c2ccccc2C#N)n1` [Compound 295, 4-[5-(2-aminoethyl)pyrimidin-2-yl]-3-[6-(2-cyanophenyl)-2-methylpyrimidin-4-yl]oxybenzonitrile], the IC50 is less than 10 nM.
Consider `Cc1ncc(N2CCOCC2)cc1Oc1cc(C#N)ccc1-c1ncc(CN)cn1` [compound 920, 4-[5-(aminomethyl)pyrimidin-2-yl]-3-(2-methyl-5-morpholin-4-ylpyridin-3-yl)oxybenzonitrile], for which the IC50 is greater than 1000 nM.
For `Cc1nc(Oc2cc(C#N)ccc2-c2ccc(C(O)CN)cc2)cc(N2CCOCC2)n1` (stereo not drawn) [Compound 9, 4-[4-(2-amino-1-hydroxyethyl)phenyl]-3-(2-methyl-6-morpholin-4-ylpyrimidin-4-yl)oxybenzonitrile], the IC50 is less than 10 nM.
Same read-out and setting: for `CCN(CC)C(=O)C(N)c1ccc(-c2ccc(C#N)cc2Oc2cc(C3CC3)nn2C)nc1` (stereo not drawn) [compound 488, 2-amino-2-[6-[4-cyano-2-(5-cyclopropyl-2-methylpyrazol-3-yl)oxyphenyl]pyridin-3-yl]-N,N-diethylacetamide] the value was greater than 1000 nM; for `Cn1nc(-c2cncs2)cc1Oc1cc(C#N)ccc1-c1ncc(CN)cn1` [compound 935, 4-[5-(aminomethyl)pyrimidin-2-yl]-3-[2-methyl-5-(1,3-thiazol-5-yl)pyrazol-3-yl]oxybenzonitrile], less than 10 nM.
`Cc1nc(OCC(F)(F)F)cc(Oc2cc(C#N)ccc2-c2ncc(CN)cn2)n1` [compound 893, 4-[5-(aminomethyl)pyrimidin-2-yl]-3-[2-methyl-6-(2,2,2-trifluoroethoxy)pyrimidin-4-yl]oxybenzonitrile]: the IC50 is greater than 1000 nM.
On the same count and under the same terms, the same measure for `Cc1nc(Oc2cc(C#N)ccc2-c2ncc(CN)cn2)cc(O[C@H]2CCOC2)n1` [compound 845, 4-[5-(aminomethyl)pyrimidin-2-yl]-3-[2-methyl-6-[(3S)-oxolan-3-yl]oxypyrimidin-4-yl]oxybenzonitrile]: greater than 1000 nM; for `Cc1cc(Oc2cc(C#N)ccc2-c2ccc([C@H](O)CN)cn2)cc(OC2COC2)n1` [compound 591, 4-[5-[(1S)-2-amino-1-hydroxyethyl]pyridin-2-yl]-3-[2-methyl-6-(oxetan-3-yloxy)pyridin-4-yl]oxybenzonitrile]: greater than 1000 nM; for `NCCc1cnc(-c2ccc(F)cc2Oc2cnn(CC(F)F)c2)nc1` [compound 1005, 2-[2-[2-[1-(2,2-difluoroethyl)pyrazol-4-yl]oxy-4-fluorophenyl]pyrimidin-5-yl]ethanamine]: greater than 1000 nM.
On the same count and under the same terms, the same measure for `Cc1nc(Oc2cc(C#N)ccc2-c2ccc(C(CN)OCC(=O)O)cc2)cc(N2CCOCC2)n1` (stereo not drawn) [Compound 63, 2-[2-amino-1-[4-[4-cyano-2-(2-methyl-6-morpholin-4-ylpyrimidin-4-yl)oxyphenyl]phenyl]ethoxy] acetic acid]: greater than 1000 nM.
In the case of `Cn1nc(-c2ccccc2)cc1Oc1cc(C#N)ccc1-c1cnc(CCN)nc1` [compound 346, 4-[2-(2-aminoethyl)pyrimidin-5-yl]-3 (2-methyl-5-phenylpyrazol-3-yl)oxybenzonitrile], the IC50 was less than 10 nM.
Turning to `Cn1nc(-c2nccs2)cc1Oc1cc(C#N)ccc1-c1ncc(CCN)cn1` [compound 391, 4-[5-(2-aminoethyl)pyrimidin-2-yl]-3-[2-methyl-5-(1,3-thiazol-2-yl)pyrazol-3-yl]oxybenzonitrile], the IC50 was less than 10 nM.
Still for that read-out and setting: for `N#Cc1ccc(-c2ccc(CCN)nc2)c(Oc2cc(N3CCOCC3)cnn2)c1` [Compound 80, 4-[6-(2-aminoethyl)pyridin-3-yl]-3-(5-morpholin-4-ylpyridazin-3-yl)oxybenzonitrile] the value was greater than 1000 nM; for `Cc1nc(Oc2cc(C#N)ccc2-c2ncc(CCN)cn2)cc(N2CCC[C@H]2C#N)n1` [compound 674, (2S)-1-[6-[2-[5-(2-aminoethyl)pyrimidin-2-yl]-5-cyanophenoxy]-2-methylpyrimidin-4-yl]pyrrolidine-2-carbonitrile], 10 to 1000 nM.
Same read-out and setting: the same measure for `Cn1nc(-c2ccccc2)cc1Oc1cc(C#N)ccc1-c1ncc(C(O)CN)s1` (stereo not drawn) [Compound 225, 4-[5-(2-amino-1-hydroxyethyl)-1,3-thiazol-2-yl]-3-(2-methyl-5-phenylpyrazol-3-yl)oxybenzonitrile]: less than 10 nM; for `Cn1nc(N2CCCC2)cc1Oc1cc(C#N)ccc1-c1ccc([C@H](O)CN)cn1` [compound 545, 4-[5-[(1S)-2-amino-1-hydroxyethyl]pyridin-2-yl]-3-(2-methyl-5-pyrrolidin-1-ylpyrazol-3-yl)oxybenzonitrile]: 10 to 1000 nM; for `CCN(CC)c1cc(Cc2cc(C#N)ccc2-c2ncc(CCN)cn2)n(C)n1` [compound 1207, 4-[5-(2-aminoethyl)pyrimidin-2-yl]-3-[[5-(diethylamino)-2-methylpyrazol-3-yl]methyl]benzonitrile]: less than 10 nM.
The same measure, in the same setting: the same measure for `Cc1nc(OCC(F)(F)F)cc(Oc2cc(C#N)ccc2-c2ncc(CCN)cn2)n1` [compound 884, 4-[5-(2-aminoethyl)pyrimidin-2-yl]-3-[2-methyl-6-(2,2,2-trifluoroethoxy)pyrimidin-4-yl]oxybenzonitrile]: 10 to 1000 nM.
As for `CC(C)NCc1cnc(-c2ccc(C#N)cc2Oc2cc(-c3ccccn3)nn2C)nc1` [compound 663, 3-(2-methyl-5-pyridin-2-ylpyrazol-3-yl)oxy-4-[5-[(propan-2-ylamino)methyl]pyrimidin-2-yl]benzonitrile], the IC50 is 10 to 1000 nM.
For `Cc1nc(Oc2cc(C#N)ccc2-c2ncc(CN)cn2)cc(N2C=NCCC2)n1` [compound 850, 4-[5-(aminomethyl)pyrimidin-2-yl]-3-[6-(5,6-dihydro-4H-pyrimidin-1-yl)-2-methylpyrimidin-4-yl]oxybenzonitrile], the IC50 was less than 10 nM.
On the same count and under the same terms, the same measure for `CCN(CC(F)F)c1cc(Oc2cc(C#N)ccc2-c2ncc(CCN)cn2)n(C)n1` [Compound No. 875, 4-[5-(2-Aminoethyl)pyrimidin-2-yl]-3-[5-[2,2-difluoroethyl(ethyl)amino]-2-methylpyrazol-3-yl]oxybenzonitrile]: less than 10 nM.
The same measure, in the same setting: the same measure for `CCc1cc(Oc2cc(C#N)ccc2-c2ncc(CN)cn2)n(C)n1` [compound 324, 4-[5-(aminomethyl)pyrimidin-2-yl]-3-(5-ethyl-2-methylpyrazol-3-yl)oxybenzonitrile]: less than 10 nM; for `Cc1nc(Sc2cc(C#N)ccc2-n2cc(CCN)cn2)cc(N2CCCCC2)n1` [compound 1252, 4-[4-(2-aminoethyl)pyrazol-1-yl]-3-(2-methyl-6-piperidin-1-ylpyrimidin-4-yl)sulfanylbenzonitrile]: 10 to 1000 nM; for `Cn1nc(C2CC2)cc1Oc1cc(C#N)ccc1-c1cccc2c(N)noc12` [compound 594, 4-(3-amino-1,2-benzoxazol-7-yl)-3-(5-cyclopropyl-2-methylpyrazol-3-yl)oxybenzonitrile]: greater than 1000 nM.
